Results reported in ChEMBL document CHEMBL4229545, “Oximes short-acting CB1 receptor agonists” (Bioorg Med Chem, 2018).

How the values were obtained:
Cannabinoid receptor 1 [1] = target: T1, Cannabinoid receptor 1 (Rattus norvegicus, UniProt P20272); test: Displacement of [3H]CP-55,940 from rat brain Cb1 receptor
Cannabinoid receptor 2 [2] = target: T2, Cannabinoid receptor 2 (Homo sapiens, UniProt P34972); test: Displacement of [3H]CP-55,940 from recombinant human Cb2 receptor expressed in HEK293 cells; format: cell-based
Cannabinoid receptor 2 [3] = target: Cannabinoid receptor 2 (Mus musculus, UniProt P47936); test: Displacement of [3H]CP-55,940 from recombinant mouse Cb2 receptor expressed in HEK293 cells; format: cell-based
Cannabinoid receptor 1 [4] = target: T1, Cannabinoid receptor 1; test: Agonist activity at recombinant rat Cb1 receptor expressed in HEK293 cells assessed as inhibition of forskolin-stimulated cAMP levels; format: functional, cell-based
Cannabinoid receptor 2 [5] = target: T2, Cannabinoid receptor 2; test: Agonist activity at recombinant human Cb2 receptor expressed in HEK293 cells assessed as inhibition of forskolin-stimulated cAMP levels; format: functional, cell-based
[6] = target: Cannabinoid receptor 1 (Rattus norvegicus) (UniProt P20272); test: Agonist activity at recombinant rat Cb1 receptor expressed in HEK293 cells assessed as inhibition of forskolin-stimulated cAMP levels relative to control; format: functional, cell-based
Cannabinoid receptor 2 [7] = target: T2, Cannabinoid receptor 2; test: Agonist activity at recombinant human Cb2 receptor expressed in HEK293 cells assessed as inhibition of forskolin-stimulated cAMP levels relative to CP-55940; format: functional, cell-based

Chain of Cannabinoid receptor 1 (Rattus norvegicus) (P20272 whole entry): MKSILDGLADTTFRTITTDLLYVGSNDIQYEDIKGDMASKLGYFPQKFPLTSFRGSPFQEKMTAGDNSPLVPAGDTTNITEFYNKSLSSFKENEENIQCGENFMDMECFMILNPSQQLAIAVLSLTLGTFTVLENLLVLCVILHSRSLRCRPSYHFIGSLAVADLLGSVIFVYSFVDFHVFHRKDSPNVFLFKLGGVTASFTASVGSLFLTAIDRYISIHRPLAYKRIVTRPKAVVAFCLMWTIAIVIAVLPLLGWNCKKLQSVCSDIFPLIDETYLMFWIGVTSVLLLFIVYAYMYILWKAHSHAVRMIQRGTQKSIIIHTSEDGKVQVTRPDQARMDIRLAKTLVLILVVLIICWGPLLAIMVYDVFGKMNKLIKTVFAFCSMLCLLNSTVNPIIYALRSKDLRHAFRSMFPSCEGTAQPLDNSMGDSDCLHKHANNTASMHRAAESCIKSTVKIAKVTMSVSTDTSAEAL
T1 sequence (P20272 whole entry): as above
Chain of Cannabinoid receptor 2 (Mus musculus, UniProt P47936) (P47936 whole entry): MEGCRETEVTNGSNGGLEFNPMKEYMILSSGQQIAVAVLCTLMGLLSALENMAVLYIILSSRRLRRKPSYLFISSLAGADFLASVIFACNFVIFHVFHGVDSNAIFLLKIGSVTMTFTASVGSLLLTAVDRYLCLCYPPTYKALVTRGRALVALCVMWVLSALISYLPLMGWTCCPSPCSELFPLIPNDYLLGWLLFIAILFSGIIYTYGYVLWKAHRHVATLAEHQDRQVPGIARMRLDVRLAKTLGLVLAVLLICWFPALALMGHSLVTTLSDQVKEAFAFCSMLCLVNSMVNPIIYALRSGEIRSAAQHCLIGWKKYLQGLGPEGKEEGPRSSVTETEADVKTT
T2 sequence (P34972 whole entry): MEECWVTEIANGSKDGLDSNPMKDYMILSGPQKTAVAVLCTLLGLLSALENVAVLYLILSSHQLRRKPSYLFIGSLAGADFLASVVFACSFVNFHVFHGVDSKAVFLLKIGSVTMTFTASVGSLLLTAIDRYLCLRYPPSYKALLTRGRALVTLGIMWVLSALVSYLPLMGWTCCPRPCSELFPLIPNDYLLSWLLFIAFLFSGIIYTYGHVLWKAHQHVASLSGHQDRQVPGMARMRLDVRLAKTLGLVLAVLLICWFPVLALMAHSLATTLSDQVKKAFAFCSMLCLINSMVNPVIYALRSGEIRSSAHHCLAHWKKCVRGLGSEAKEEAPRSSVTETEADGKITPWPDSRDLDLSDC

CC1=CC[C@H]2[C@H](C1)c1c(O)cc(/C(C)=N/OCCCn3ccnc3)cc1OC2(C)C
Ki (Cannabinoid receptor 1 [1]): 1.2 nM | Ki (Cannabinoid receptor 2 [2]): 3.7 nM | Ki (Cannabinoid receptor 2 [3]): 1.5 nM

CC1=CC[C@H]2[C@H](C1)c1c(O)cc(/C(C)=N/OCCCCF)cc1OC2(C)C
Ki (Cannabinoid receptor 1 [1]): 4.1 nM | Ki (Cannabinoid receptor 2 [2]): 9.7 nM | Ki (Cannabinoid receptor 2 [3]): 2.5 nM | EC50 (Cannabinoid receptor 1 [4]; read-out: EC50): 0.7 nM | EC50 (Cannabinoid receptor 2 [5]; hek293): Not Active | Emax [6]: 39%

CC1=CC[C@H]2[C@H](C1)c1c(O)cc(/C(C)=N\OCCCc3ccccc3)cc1OC2(C)C
Ki (Cannabinoid receptor 1 [1]): 5 nM | Ki (Cannabinoid receptor 2 [2]): 2.9 nM | Ki (Cannabinoid receptor 2 [3]): 2.8 nM | EC50 (Cannabinoid receptor 1 [4]; hek293): Not Active | EC50 (Cannabinoid receptor 2 [5]; read-out: EC50): 1.7 nM | Emax (Cannabinoid receptor 2 [7]): 98%

CCCCCc1cc(O)c2c(c1)OC(C)(C)[C@H]1CC=C(C)C[C@H]21
Ki (Cannabinoid receptor 2 [3]): 40.4 nM

CC1=CC[C@H]2[C@H](C1)c1c(O)cc(/C(C)=N/OCCOc3ccccc3)cc1OC2(C)C
Ki (Cannabinoid receptor 1 [1]): 11.4 nM | Ki (Cannabinoid receptor 2 [2]): 6.2 nM | Ki (Cannabinoid receptor 2 [3]): 3.7 nM | EC50 (Cannabinoid receptor 1 [4]; read-out: EC50): 0.9 nM | EC50 (Cannabinoid receptor 2 [5]; read-out: EC50): 49.6 nM | Emax [6]: 56% | Emax (Cannabinoid receptor 2 [7]): 99%

CC1=CC[C@H]2[C@H](C1)c1c(O)cc(/C(C)=N/OCCCc3ccccc3)cc1OC2(C)C
Ki (Cannabinoid receptor 1 [1]): 3 nM | Ki (Cannabinoid receptor 2 [2]): 2.7 nM | Ki (Cannabinoid receptor 2 [3]): 3.8 nM | EC50 (Cannabinoid receptor 1 [4]; read-out: EC50): 2.6 nM | EC50 (Cannabinoid receptor 2 [5]; read-out: EC50): 1.65 nM | Emax [6]: 27% | Emax (Cannabinoid receptor 2 [7]): 35%

CC1=CC[C@H]2[C@H](C1)c1c(O)cc(/C(C)=N/OCCCC(F)(F)F)cc1OC2(C)C
Ki (Cannabinoid receptor 1 [1]): 0.3 nM | Ki (Cannabinoid receptor 2 [2]): 3 nM | Ki (Cannabinoid receptor 2 [3]): 0.5 nM | EC50 (Cannabinoid receptor 1 [4]; read-out: EC50): 0.4 nM | EC50 (Cannabinoid receptor 2 [5]; read-out: EC50): 1 nM | Emax [6]: 69% | Emax (Cannabinoid receptor 2 [7]): 43%

CC1=CC[C@H]2[C@H](C1)c1c(O)cc(/C(C)=N/OCCN3CCCC3)cc1OC2(C)C
Ki (Cannabinoid receptor 1 [1]): 6.6 nM | Ki (Cannabinoid receptor 2 [2]): 8.4 nM | Ki (Cannabinoid receptor 2 [3]): 6.7 nM

CCO/N=C(\C)c1cc(O)c2c(c1)OC(C)(C)[C@H]1CC=C(C)C[C@H]21
Ki (Cannabinoid receptor 1 [1]): 66.1 nM | Ki (Cannabinoid receptor 2 [3]): 74.8 nM
